Our source for the IC50 values is paper PMC5805707 (Scientific Reports, 2018).

The target in this experiment is T1, cytochrome bd (Mycobacterium tuberculosis, UniProt L7N662).
T1 construct: gene cydA; native complex in inverted membrane vesicles of strain mc^2 6020
Briefly: NADH-driven oxygen consumption of inverted membrane vesicles (Clark electrode); maximal inhibition […]. The experiment is classed as biochemical.

T1 sequence (O06139 entry or part of it): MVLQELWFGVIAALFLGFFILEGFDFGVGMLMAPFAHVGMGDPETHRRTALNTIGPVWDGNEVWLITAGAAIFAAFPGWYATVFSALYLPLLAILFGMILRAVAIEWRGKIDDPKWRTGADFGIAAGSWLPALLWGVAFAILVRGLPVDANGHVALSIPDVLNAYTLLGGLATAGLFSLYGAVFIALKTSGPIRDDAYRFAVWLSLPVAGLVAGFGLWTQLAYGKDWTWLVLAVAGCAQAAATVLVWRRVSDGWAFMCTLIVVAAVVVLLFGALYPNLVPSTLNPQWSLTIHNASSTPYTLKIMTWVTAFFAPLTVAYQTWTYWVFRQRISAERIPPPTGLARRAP
T1 sequence (L7N662 entry or part of it): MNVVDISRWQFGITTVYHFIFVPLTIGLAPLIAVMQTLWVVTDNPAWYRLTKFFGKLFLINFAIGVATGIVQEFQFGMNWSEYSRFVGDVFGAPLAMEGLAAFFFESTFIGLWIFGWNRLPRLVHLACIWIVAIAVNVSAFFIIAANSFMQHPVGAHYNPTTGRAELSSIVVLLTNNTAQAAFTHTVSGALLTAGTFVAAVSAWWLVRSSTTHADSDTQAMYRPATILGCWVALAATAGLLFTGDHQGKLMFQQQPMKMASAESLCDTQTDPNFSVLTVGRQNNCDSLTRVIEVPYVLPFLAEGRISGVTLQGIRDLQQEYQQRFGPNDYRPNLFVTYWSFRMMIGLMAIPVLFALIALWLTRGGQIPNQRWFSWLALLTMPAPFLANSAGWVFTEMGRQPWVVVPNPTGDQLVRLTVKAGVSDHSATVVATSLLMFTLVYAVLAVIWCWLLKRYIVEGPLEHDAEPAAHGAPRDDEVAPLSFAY

Molecule `CC(C)=CCC/C(C)=C/CC/C(C)=C/Cc1c(C)[nH]c2ccccc2c1=O` [aurachin D] showed an IC50 of about 0.4 µM.

In general, IC50 refers to the midpoint of a concentration-inhibition curve. High values mean lower potency, low ones higher potency.
